The values that follow are results of earlier work, collected in patent publication US4181677A, “2-Benzoyl-3-alkoxy-2-alkenonitriles” (American Cyanamid Company, priority 1978, dated 1980).

Structures are written as SMILES.

This series relates to joint and bone deterioration. The note with it: S. Wong et al. (1973); G. R. Bobalick et al. (1974).

For `COc1ccc2c(c1)c(CC(=O)O)c(C)n2C(=O)c1ccc(Cl)cc1` [Indomethacin], the “prevention of joint and bone deterioration” value was “prevent joint and bone deterioration”.
